# Legend:
# [1] = biological target: PI3 K Alpha (Homo sapiens, UniProt P42336); assay: PI3 kinase phosphorylation assays (homogenous solution phase, one step solid phase, ATP depletion/KinaseGlo); assay type: biochemical; settings: read-out: PI3K Alpha IC50
# [2] = tested on: A2780 cells; assay: Viability assay in A2780 (Cell Titer Glo); assay type: cell-based, human; settings: Homo sapiens; A2780 cells; read-out: A2780 Cell prolif. EC50
# How it was run: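 A2780 cells (1,000/well, DMEM + 10% FBS) were exposed to 3-fold serial dilutions of compound for 72 hrs at 37° C, 5% CO2. Viable cells were read by Cell Titer Glo luminescence, in duplicate, and EC50 values were derived from the curves.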
# [3] = tested on: pSer473-Akt in A2780 cells; assay: pSer473 Akt assay to monitor PI3K pathway in A2780 cells (MSD); assay type: cell-based; settings: Homo sapiens; A2780 cells; read-out: A2780 pAKT 473 EC50
# How it was run: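 A2780 cells (15,000/well, adhered overnight) treated 1 h at 37 °C with compound, then lysed; pSer473-Akt and total Akt measured by MSD electrochemiluminescence. The pSer473/total Akt ratio gave percent inhibition versus DMSO, from which EC50 was derived.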
# Chain of PI3 K Alpha (P42336 whole entry): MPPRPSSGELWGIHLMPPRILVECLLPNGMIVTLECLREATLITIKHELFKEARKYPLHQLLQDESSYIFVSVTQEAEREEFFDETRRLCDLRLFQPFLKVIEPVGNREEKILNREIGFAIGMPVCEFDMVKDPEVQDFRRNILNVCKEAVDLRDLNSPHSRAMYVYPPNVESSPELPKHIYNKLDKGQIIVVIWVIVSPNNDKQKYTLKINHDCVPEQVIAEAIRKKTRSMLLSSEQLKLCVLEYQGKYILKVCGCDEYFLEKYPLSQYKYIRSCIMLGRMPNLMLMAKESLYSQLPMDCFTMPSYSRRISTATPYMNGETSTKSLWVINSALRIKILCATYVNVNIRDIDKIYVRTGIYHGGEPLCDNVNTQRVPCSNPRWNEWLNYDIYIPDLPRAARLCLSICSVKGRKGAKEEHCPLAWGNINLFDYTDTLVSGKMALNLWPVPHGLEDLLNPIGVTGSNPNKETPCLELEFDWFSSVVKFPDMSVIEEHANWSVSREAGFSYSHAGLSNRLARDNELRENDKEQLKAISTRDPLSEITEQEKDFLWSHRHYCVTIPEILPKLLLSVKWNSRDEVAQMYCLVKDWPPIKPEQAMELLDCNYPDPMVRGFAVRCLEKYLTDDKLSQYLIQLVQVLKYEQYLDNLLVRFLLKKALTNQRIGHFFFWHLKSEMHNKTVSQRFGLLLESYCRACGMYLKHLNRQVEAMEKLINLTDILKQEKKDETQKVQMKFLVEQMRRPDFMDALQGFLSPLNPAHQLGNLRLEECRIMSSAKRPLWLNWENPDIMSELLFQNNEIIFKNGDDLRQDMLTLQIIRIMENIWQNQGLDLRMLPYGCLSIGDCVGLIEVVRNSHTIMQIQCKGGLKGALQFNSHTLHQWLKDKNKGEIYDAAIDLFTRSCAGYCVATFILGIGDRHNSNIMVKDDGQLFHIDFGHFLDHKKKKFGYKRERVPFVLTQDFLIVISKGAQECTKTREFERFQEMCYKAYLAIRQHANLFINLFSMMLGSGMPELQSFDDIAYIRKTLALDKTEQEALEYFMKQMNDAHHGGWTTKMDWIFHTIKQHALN
# Chain of PI3 K Alpha (P27986 whole entry partner): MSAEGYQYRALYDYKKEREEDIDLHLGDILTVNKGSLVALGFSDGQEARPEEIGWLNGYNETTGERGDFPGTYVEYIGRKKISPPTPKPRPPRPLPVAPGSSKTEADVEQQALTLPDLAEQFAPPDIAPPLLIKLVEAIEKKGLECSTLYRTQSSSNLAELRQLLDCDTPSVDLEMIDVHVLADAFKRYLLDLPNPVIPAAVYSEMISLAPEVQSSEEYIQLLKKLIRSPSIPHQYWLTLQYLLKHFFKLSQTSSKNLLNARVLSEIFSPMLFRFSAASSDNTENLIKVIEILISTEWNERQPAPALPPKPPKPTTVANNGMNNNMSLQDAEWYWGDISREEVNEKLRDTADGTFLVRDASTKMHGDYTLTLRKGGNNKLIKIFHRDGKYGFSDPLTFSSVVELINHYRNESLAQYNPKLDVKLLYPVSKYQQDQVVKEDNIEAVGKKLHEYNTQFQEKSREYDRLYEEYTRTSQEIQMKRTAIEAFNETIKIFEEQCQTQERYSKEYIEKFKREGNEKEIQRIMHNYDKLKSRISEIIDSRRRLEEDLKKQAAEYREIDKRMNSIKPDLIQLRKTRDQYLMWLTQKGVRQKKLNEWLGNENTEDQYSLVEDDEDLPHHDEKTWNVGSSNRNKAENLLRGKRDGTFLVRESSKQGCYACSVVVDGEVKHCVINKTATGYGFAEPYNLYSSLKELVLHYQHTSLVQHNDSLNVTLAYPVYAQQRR
IC50 [1] [µM],EC50 [2] [µM],EC50 [3] [µM],Structure (SMILES)
< 1,< 10,< 1,"CC(=O)Nc1cn2cc(-c3cnc(N)c(C=O)c3)ccc2n1 [Example 195, N-(6-(6-amino-5-formylpyridin-3-yl)imidazo[1,2-a]pyridin-2-yl)acetamide]"
< 1,< 10,< 1,"COCCOc1nc(-c2ccc3nc(NC(=O)COC)cn3c2)cnc1N [Example 196, N-(6-(5-amino-6-(2-methoxyethoxy)pyrazin-2-yl)imidazo[1,2-a]pyridin-2-yl)-2-methoxyacetamide]"
< 1,< 10,< 1,"CC(=O)Nc1cn2cc(-c3cnc(N)c(/C=N/N(C)C)c3)ccc2n1 [Example 204, (E)-N-(6-(6-amino-5-((2,2-dimethylhy-drazono)methyl)pyridin-3-yl)imidazo[1,2-a]pyridin-2-yl)acetamide]"
< 1,< 10,< 1,"Nc1ncc(-c2ccc3nc(NC(=O)CCO)cn3c2)cc1C(F)(F)F [Example 205, N-(6-(6-amino-5-(trifluoromethyl)pyridin-3-yl)imidazo[1,2-a]pyridin-2-yl)-3-hydroxypropanamide]"
< 1,< 10,< 1,"CCN1CCN(CCCC(=O)Nc2cn3cc(-c4cnc(N)c(C(F)(F)F)c4)ccc3n2)CC1 [Example 206, N-(6-(6-amino-5-(trifluoromethyl)pyridin-3-yl)imidazo[1,2-a]pyridin-2-yl)-4-(4-ethylpiperazin-1-yl)butanamide]"
< 1,< 10,< 1,"CC(=O)Nc1cn2cc(-c3cnc(N)c(C)c3)ccc2n1 [Example 208, N-(6-(6-amino-5-methylpyridin-3-yl)imidazo[1,2-a]pyridin-2-yl)acetamide]"
< 1,< 10,< 10,"CC(=O)Nc1nc2ccc(-c3cnc(N)c(C(F)(F)F)c3)cn2c1C#CCN1CCOCC1 [Example 213, N-(6-(6-amino-5-(trifluoromethyl)pyridin-3-yl)-3-(3-morpholino-prop-1-ynyl)imidazo[1,2-a]pyridin-2-yl)acetamide]"
< 1,< 10,< 10,"NCC(=O)Nc1cn2cc(-c3cnc(N)c(C(F)(F)F)c3)ccc2n1 [Example 215, 2-amino-N-(6-(6-amino-5-(trifluoromethyl)pyridin-3-yl)imidazo[1,2-a]pyridin-2-yl)acetamide]"
< 1,< 10,< 1,"CCN(CC)C(=O)c1cc(-c2ccc3nc(NC(C)=O)cn3c2)cnc1N [Example 218, 5-(2-acetamido-imidazo[1,2-a]pyridin-6-yl)-2-amino-N,N-diethyl-nicotinamide]"

# Further lines, the compound ahead of its results:
Structure (SMILES),IC50 [1] [µM],EC50 [2] [µM],EC50 [3] [µM]
"Nc1ncc(-c2ccc3nc(NC(=O)c4ccc(N5CCNCC5)nc4)cn3c2)cc1C(F)(F)F [Example 126, N-(6-(6-amino-5-(trifluoromethyl)pyridin-3-yl)imidazo[1,2-a]pyridin-2-yl)-6-(piperazin-1-yl)nicotinamide]",< 1,< 10,< 1
"CC(=O)Nc1nc2ccc(-c3cnc(N)c(C(F)(F)F)c3)cn2c1C#Cc1ccc(C)cc1 [Example 127, N-(6-(6-amino-5-(trifluoromethyl)pyridin-3-yl)-3-(p-tolylethynyl)imidazo[1,2-a]pyridin-2-yl)acetamide]",< 1,< 10,< 1
"CC(=O)Nc1cn2cc(-c3cnc(N)c(OC4CN(C(=O)c5ccccc5)C4)n3)ccc2n1 [Example 128, N-(6-(5-amino-6-(1-benzoylazetidin-3-yloxy)pyrazin-2-yl)imidazo[1,2-a]pyridin-2-yl)acetamide]",< 1,< 10,< 1
"COc1nc(-c2ccc3nc(NC(C)=O)cn3n2)cnc1N [Example 130, N-(6-(5-amino-6-methoxypyrazin-2-yl)imidazo[1,2-b]pyridazin-2-yl)acetamide]",< 1,< 10,< 1
"CC(=O)Nc1cn2cc(-c3cnc(N)c(N4CCN(C)CC4)n3)ccc2n1 [Example 131, N-(6-(5-amino-6-(4-methylpiperazin-1-yl)pyrazin-2-yl)imidazo[1,2-a]pyridin-2-yl)acetamide]",< 1,< 10,< 1
"COC(=O)CCCC(=O)Nc1cn2nc(-c3cnc(N)c(C(F)(F)F)c3)ccc2n1 [Example 132, methyl 5-(6-(6-amino-5-(trifluoromethyl)pyridin-3-yl)imidazo[1,2-b]pyridazin-2-ylamino)-5-oxopentanoate]",< 1,< 10,< 1
"Nc1ncc(-c2ccc3nc(NC(=O)CN4CCCCC4)cn3n2)cc1C(F)(F)F [Example 133, N-(6-(6-amino-5-(trifluoromethyl)pyridin-3-yl)imidazo[1,2-b]pyridazin-2-yl)-2-(piperidin-1-yl)acetamide]",< 1,< 10,< 1
"CC(C)(C)OC(=O)NCC(=O)Nc1cn2nc(-c3cnc(N)c(C(F)(F)F)c3)ccc2n1 [Example 135, tert-butyl 2-(6-(6-amino-5-(trifluoromethyl)pyridin-3-yl)imidazo[1,2-b]pyridazin-2-ylamino)-2-oxoethylcarbamate]",< 1,< 10,< 1
"CC(=O)Nc1cn2nc(-c3cnc(N)c(C(=O)O)c3)ccc2n1 [Example 136, 5-(2-acetamido-imidazo[1,2-b]pyridazin-6-yl)-2-aminonicotinic acid]",< 1,< 25,< 25
"CCOc1nc(-c2ccc3nc(NC(C)=O)cn3n2)cnc1N [Example 184, N-(6-(5-amino-6-ethoxypyrazin-2-yl)imidazo[1,2-b]pyridazin-2-yl)acetamide]",< 1,< 10,< 1
"Nc1ncc(-c2ccc3nc(NC(=O)c4ccc(-n5ccnc5)cc4)cn3c2)cc1C(F)(F)F [Example 187, N-(6-(6-amino-5-(trifluoromethyl)pyridin-3-yl)imidazo[1,2-a]pyridin-2-yl)-4-(1H-imidazol-1-yl)benzamide]",< 1,< 10,< 1
"CC(=O)Nc1cn2cc(-c3cnc(N)c(Cl)c3)ccc2n1 [Example 188, N-(6-(6-amino-5-chloropyridin-3-yl)imidazo[1,2-a]pyridin-2-yl)acetamide]",< 1,< 10,< 1
"CC(=O)Nc1cn2cc(-c3cnc(N)c(C(F)(F)F)c3)cc(F)c2n1 [Example 190, N-(6-(6-amino-5-(trifluoromethyl)pyridin-3-yl)-8-fluoroimidazo [1,2-a]pyridin-2-yl)acetamide]",< 1,< 10,< 1
"C/C=C/c1c(NC(C)=O)nc2ccc(-c3cnc(N)c(C(F)(F)F)c3)cn12 [Example 193, (E)-N-(6-(6-amino-5-(trifluoromethyl)pyridin-3-yl)-3-(prop-1-enyl)imidazo[1,2-a]pyridin-2-yl)acetamide]",< 1,< 10,< 10
"CC(=O)Nc1cn2c(C)c(-c3cnc(N)c(C(F)(F)F)c3)ccc2n1 [Example 194, N-(6-(6-amino-5-(trifluoromethyl)pyridin-3-yl)-5-methylimidazo[1,2-a]pyridin-2-yl)acetamide]",< 1,< 10,< 10

# Source: patent publication US20100075965A1, “PI3 KINASE INHIBITORS AND METHODS OF THEIR USE” (Novartis AG, priority 2006, published 2010)
